In brackets after ≈: the same amount, converted by molar mass. Like-named read-outs stand apart in the source and are kept apart here.
Experiments:
Format in all cases: cell-based
E. faecium ATCC 35667 = assay: MIC, Gram-positive bacteria: E. faecium ATCC 35667; details: Enterococcus faecium, ATCC35667, column 2, read-out: Minimal Inhibitory Concentration (MIC) E. faecium ATCC 35667
Gram-Negative Organisms = assay: microbe, parasite or virus in culture
E. faecium VRE; vanA = assay: MIC, Gram-positive bacteria: E. faecium VRE; vanA; details: Enterococcus faecium, column 3, read-out: Minimal Inhibitory Concentration (MIC) E. faecium VRE
H. influenzae ATCC 49247 = assay: MIC, Gram-negative bacteria: H. influenzae ATCC 49247; details: Haemophilus influenzae, ATCC49247, read-out: Minimal Inhibitory Concentration (MIC) H. influenzae ATCC 49247
[1] = test system: S. aureus Vat A streptogramin; assay: MIC, Gram-positive bacteria: S. aureus Vat A streptogramin; details: Staphylococcus aureus; Gram-positive; column 5; read-out: Minimal Inhibitory Concentration (MIC) S. aureus Vat A streptogramin
S. pneumoniae = assay: MIC, Gram-positive bacteria: S. pneumoniae; details: Streptococcus pneumoniae, column 10, read-out: Minimal Inhibitory Concentration (MIC) S. pneumoniae
[2] = test system: S. aureus Linezolid-resistant; cfr; assay: MIC, Gram-positive bacteria: S. aureus Linezolid-resistant; cfr; details: Staphylococcus aureus, column 9, read-out: Minimal Inhibitory Concentration (MIC) S. aureus Linezolid-resistant
[3] = test system: K. pneumoniae multidrug-resistant; assay: MIC, Gram-negative bacteria: K. pneumoniae multidrug-resistant; details: Klebsiella pneumoniae, read-out: Minimal Inhibitory Concentration (MIC) K. pneumoniae multidrug-resistant
S. aureus = assay: MIC, Gram-positive bacteria: S. aureus (strains not named); details: Staphylococcus aureus, read-out: Minimal Inhibitory Concentration (MIC) S. aureus
E. faecalis = assay: MIC, Gram-positive bacteria: E. faecalis; details: Enterococcus faecalis, column 1, read-out: Minimal Inhibitory Concentration (MIC) E. faecalis
P. aeruginosa ATCC 27853 = assay: MIC, Gram-negative bacteria: P. aeruginosa ATCC 27853; details: Pseudomonas aeruginosa, ATCC27853, read-out: Minimal Inhibitory Concentration (MIC) P. aeruginosa ATCC 27853
[4] = test system: P. aeruginosa MDR clinical isolate; assay: MIC, Gram-negative bacteria: P. aeruginosa MDR clinical isolate; details: Pseudomonas aeruginosa, read-out: Minimal Inhibitory Concentration (MIC) P. aeruginosa MDR clinical isolate
[5] = Acinetobacter baumannii, ATCC19606, read-out: Minimal Inhibitory Concentration (MIC), A. baumannii ATCC 19606
[6] = Escherichia coli, ATCC25922, read-out: Minimal Inhibitory Concentration (MIC), E. coli ATCC 25922
[7] = Escherichia coli, read-out: Minimal Inhibitory Concentration (MIC), E. coli BAS2006, OMP C, OMP F
[8] = Escherichia coli, read-out: Minimal Inhibitory Concentration (MIC), E. coli olC efflux defective
[9] = Escherichia coli, read-out: Minimal Inhibitory Concentration (MIC), E. coli permeability mutant BAS1314, IMP4213ZAB::TN10
[10] = Klebsiella pneumoniae, ATCC43816, read-out: Minimal Inhibitory Concentration (MIC), K. pneumoniae ATCC 43816
[11] = first unnamed S. aureus column (c4)
[12] = fourth unnamed S. aureus column (c8)
[13] = second unnamed S. aureus column (c6)
[14] = third unnamed S. aureus column (c7)
[15] = Escherichia coli, read-out: Minimal Inhibitory Concentration (MIC), E. coli ΔompC768, KanR insert

SMILES: CC1=C\[C@@H](O)CC(=O)Cc2nc(co2)C(=O)N2CCC[C@@H]2C(=O)O[C@H]([C@@H](C)COC(=O)Nc2cc3ccccc3cn2)[C@H](C)/C=C/C(=O)NC\C=C\1 [SA0110118]
- MIC (E. faecium ATCC 35667): 4 µg/mL (≈ 5.6 µM)
- MIC (Gram-Negative Organisms; [5]): > 64 µg/mL
- MIC (Gram-Negative Organisms; [6]): > 64 µg/mL
- MIC (Gram-Negative Organisms; [7]): 8 µg/mL (≈ 11.2 µM)
- MIC (Gram-Negative Organisms; [8]): 2 µg/mL (≈ 2.8 µM)
- MIC (Gram-Negative Organisms; [9]): 2 µg/mL (≈ 2.8 µM)
- MIC (Gram-Negative Organisms; [10]): > 64 µg/mL
- MIC (E. faecium VRE; vanA): 16 µg/mL (≈ 22.4 µM)
- MIC (H. influenzae ATCC 49247): > 64 µg/mL
- MIC [1]: > 64 µg/mL
- MIC (S. pneumoniae): 2 µg/mL (≈ 2.8 µM)
- MIC [2]: > 64 µg/mL
- MIC [3]: > 64 µg/mL
- MIC (S. aureus; [11]): 8 µg/mL (≈ 11.2 µM)
- MIC (S. aureus; [12]): 8 µg/mL (≈ 11.2 µM)
- MIC (S. aureus; [13]): 8 µg/mL (≈ 11.2 µM)
- MIC (S. aureus; [14]): 16 µg/mL (≈ 22.4 µM)
- MIC (E. faecalis): > 64 µg/mL
- MIC (P. aeruginosa ATCC 27853): > 64 µg/mL
- MIC [4]: > 64 µg/mL

SMILES: CC1=C\[C@@H](O)CC(=O)Cc2nc(co2)C(=O)N2CCC[C@@H]2C(=O)O[C@H]([C@@H](C)COC(=O)Nc2ccccn2)[C@H](C)/C=C/C(=O)NC\C=C\1 [SA0110120]
- MIC (E. faecium ATCC 35667): 32 µg/mL (≈ 48.2 µM)
- MIC (Gram-Negative Organisms; [5]): > 64 µg/mL
- MIC (Gram-Negative Organisms; [6]): > 64 µg/mL
- MIC (Gram-Negative Organisms; [7]): 32 µg/mL (≈ 48.2 µM)
- MIC (Gram-Negative Organisms; [8]): 4 µg/mL (≈ 6.03 µM)
- MIC (Gram-Negative Organisms; [9]): 8 µg/mL (≈ 12.1 µM)
- MIC (Gram-Negative Organisms; [10]): > 64 µg/mL
- MIC (E. faecium VRE; vanA): 64 µg/mL (≈ 96.4 µM)
- MIC (H. influenzae ATCC 49247): 32 µg/mL (≈ 48.2 µM)
- MIC [1]: > 64 µg/mL
- MIC (S. pneumoniae): 16 µg/mL (≈ 24.1 µM)
- MIC [2]: > 64 µg/mL
- MIC [3]: > 64 µg/mL
- MIC (S. aureus; [11]): 64 µg/mL (≈ 96.4 µM)
- MIC (S. aureus; [12]): 32 µg/mL (≈ 48.2 µM)
- MIC (S. aureus; [13]): 64 µg/mL (≈ 96.4 µM)
- MIC (S. aureus; [14]): > 64 µg/mL
- MIC (E. faecalis): > 64 µg/mL
- MIC (P. aeruginosa ATCC 27853): > 64 µg/mL
- MIC [4]: > 64 µg/mL

SMILES: CC1=C\[C@@H](O)CC(=O)Cc2nc(co2)C(=O)N2CCC[C@@H]2C(=O)O[C@H]([C@@H](C)CN2CCOCC2)[C@H](C)/C=C/C(=O)NC\C=C\1 [SA0110161]
- MIC (E. faecium ATCC 35667): > 64 µg/mL
- MIC (Gram-Negative Organisms; [5]): > 64 µg/mL
- MIC (Gram-Negative Organisms; [6]): > 64 µg/mL
- MIC (Gram-Negative Organisms; [7]): > 64 µg/mL
- MIC (Gram-Negative Organisms; [8]): > 64 µg/mL
- MIC (Gram-Negative Organisms; [9]): > 64 µg/mL
- MIC (Gram-Negative Organisms; [15]): > 64 µg/mL
- MIC (Gram-Negative Organisms; [10]): > 64 µg/mL
- MIC (E. faecium VRE; vanA): > 64 µg/mL
- MIC (H. influenzae ATCC 49247): > 64 µg/mL
- MIC [1]: > 64 µg/mL
- MIC (S. pneumoniae): > 64 µg/mL
- MIC [2]: > 64 µg/mL
- MIC [3]: > 64 µg/mL
- MIC (S. aureus; [11]): > 64 µg/mL
- MIC (S. aureus; [12]): > 64 µg/mL
- MIC (S. aureus; [13]): > 64 µg/mL
- MIC (S. aureus; [14]): > 64 µg/mL
- MIC (E. faecalis): > 64 µg/mL
- MIC (P. aeruginosa ATCC 27853): > 64 µg/mL
- MIC [4]: > 64 µg/mL

SMILES: CC1=C\[C@@H](O)CC(=O)Cc2nc(co2)C(=O)N2CCC[C@@H]2C(=O)O[C@H]([C@H](C)CO)[C@H](C)/C=C/C(=O)NC\C=C\1 [SA0110170]
- MIC (E. faecium ATCC 35667): > 64 µg/mL
- MIC (Gram-Negative Organisms; [5]): > 64 µg/mL
- MIC (Gram-Negative Organisms; [6]): > 64 µg/mL
- MIC (Gram-Negative Organisms; [7]): > 64 µg/mL
- MIC (Gram-Negative Organisms; [8]): 32 µg/mL (≈ 58.9 µM)
- MIC (Gram-Negative Organisms; [9]): 32 µg/mL (≈ 58.9 µM)
- MIC (Gram-Negative Organisms; [15]): > 64 µg/mL
- MIC (Gram-Negative Organisms; [10]): > 64 µg/mL
- MIC (E. faecium VRE; vanA): > 64 µg/mL
- MIC (H. influenzae ATCC 49247): 32 µg/mL (≈ 58.9 µM)
- MIC [1]: > 64 µg/mL
- MIC (S. pneumoniae): 64 µg/mL (≈ 118 µM)
- MIC [2]: > 64 µg/mL
- MIC [3]: > 64 µg/mL
- MIC (S. aureus; [11]): > 64 µg/mL
- MIC (S. aureus; [12]): > 64 µg/mL
- MIC (S. aureus; [13]): > 64 µg/mL
- MIC (S. aureus; [14]): > 64 µg/mL
- MIC (E. faecalis): > 64 µg/mL
- MIC (P. aeruginosa ATCC 27853): > 64 µg/mL
- MIC [4]: > 64 µg/mL

SMILES: CC1=C\[C@@H](O)CC(=O)Cc2nc(co2)C(=O)N2CCC[C@@H]2C(=O)O[C@H]([C@H](C)COC(=O)Nc2ccc(C)cc2)[C@H](C)/C=C/C(=O)NC\C=C\1 [SA0110184]
- MIC (E. faecium ATCC 35667): 16 µg/mL (≈ 23.6 µM)
- MIC (Gram-Negative Organisms; [5]): > 64 µg/mL
- MIC (Gram-Negative Organisms; [6]): > 64 µg/mL
- MIC (Gram-Negative Organisms; [7]): > 64 µg/mL
- MIC (Gram-Negative Organisms; [8]): 4 µg/mL (≈ 5.91 µM)
- MIC (Gram-Negative Organisms; [9]): 2 µg/mL (≈ 2.96 µM)
- MIC (Gram-Negative Organisms; [15]): > 64 µg/mL
- MIC (Gram-Negative Organisms; [10]): > 64 µg/mL
- MIC (E. faecium VRE; vanA): 16 µg/mL (≈ 23.6 µM)
- MIC (H. influenzae ATCC 49247): 16 µg/mL (≈ 23.6 µM)
- MIC [1]: > 64 µg/mL
- MIC (S. pneumoniae): 32 µg/mL (≈ 47.3 µM)
- MIC [2]: > 64 µg/mL
- MIC [3]: > 64 µg/mL
- MIC (S. aureus; [11]): 16 µg/mL (≈ 23.6 µM)
- MIC (S. aureus; [12]): 16 µg/mL (≈ 23.6 µM)
- MIC (S. aureus; [13]): 16 µg/mL (≈ 23.6 µM)
- MIC (S. aureus; [14]): 32 µg/mL (≈ 47.3 µM)
- MIC (E. faecalis): > 64 µg/mL
- MIC (P. aeruginosa ATCC 27853): > 64 µg/mL
- MIC [4]: > 64 µg/mL

SMILES: COc1ccc(NC(=O)OC[C@@H](C)[C@H]2OC(=O)[C@H]3CCCN3C(=O)c3coc(n3)CC(=O)C[C@H](O)/C=C(C)/C=C/CNC(=O)/C=C/[C@H]2C)cc1 [SA0110185]
- MIC (E. faecium ATCC 35667): 16 µg/mL (≈ 23.1 µM)
- MIC (Gram-Negative Organisms; [5]): > 64 µg/mL
- MIC (Gram-Negative Organisms; [6]): > 64 µg/mL
- MIC (Gram-Negative Organisms; [7]): 64 µg/mL (≈ 92.4 µM)
- MIC (Gram-Negative Organisms; [8]): 2 µg/mL (≈ 2.89 µM)
- MIC (Gram-Negative Organisms; [9]): 4 µg/mL (≈ 5.77 µM)
- MIC (Gram-Negative Organisms; [15]): > 64 µg/mL
- MIC (Gram-Negative Organisms; [10]): > 64 µg/mL
- MIC (E. faecium VRE; vanA): 32 µg/mL (≈ 46.2 µM)
- MIC (H. influenzae ATCC 49247): 16 µg/mL (≈ 23.1 µM)
- MIC [1]: > 64 µg/mL
- MIC (S. pneumoniae): 32 µg/mL (≈ 46.2 µM)
- MIC [2]: > 64 µg/mL
- MIC [3]: > 64 µg/mL
- MIC (S. aureus; [11]): 32 µg/mL (≈ 46.2 µM)
- MIC (S. aureus; [12]): 16 µg/mL (≈ 23.1 µM)
- MIC (S. aureus; [13]): 16 µg/mL (≈ 23.1 µM)
- MIC (S. aureus; [14]): 32 µg/mL (≈ 46.2 µM)
- MIC (E. faecalis): > 64 µg/mL
- MIC (P. aeruginosa ATCC 27853): > 64 µg/mL
- MIC [4]: > 64 µg/mL
